SMILES strings stand for the structures.

In the assay the test system is HT-29 cells. Briefly: HT-29 necroptosis cell viability assay (TNF-α/SMAC mimetic/zVAD-FMK, CellTiter-Glo). It counts as cell-based. The note with it: Homo sapiens; HT-29 cells stimulated with TNF-α (10 ng/ml), SMAC mimetic (6 μM) and zVAD-FMK (10 μM); 20 hours; CellTiter-Glo ATP luminescence; geometric mean IC50 from 10 points; read-out: Activity. On the procedure: Compounds 1-702 of the disclosure were tested for biological activity, following the experimental procedures described below.
• Cell line: HT-29 (ATCC® HTB-38™) • Culture medium: McCOY's 5A, Gibco, Cat No. 16600-082 • FBS, Gibco, Cat No. 10099-141 C • Trypsin: Gibco, Cat No. 25200-056 • DMSO: Sigma, Cat No. 67-68-5, 1L • Assay plate: Corning #3903 • Compound dilution plate: Corning #3357 • Inducers: TNFα, GenScript, Cat No. Z01001-50, • SmacM, Cat. No., HY-15989, MedChemExpress (MCE) • Z_VAD FMK, TargetMol, T6013 • Cell Titer-Glo® Luminescent Cell Viability Assay Kit: Promega, Cat No. G7573 • EnVision: PerkinElmer, 2105-0010
• 1. HT-29 cells were checked every day to make sure that they were healthy and growing as expected. They were subjected to sub-culturing when they were approximately 80% confluent. • 2. The culture medium, McCOY's 5A medium (Gibco, Cat No. 16600-082) with 10% fetal bovine serum or FBS (Gibco, Cat No. 10099-141C), was pre-warmed in a 37° C. water bath for at least 30 min. • 3. When the cells had reached a desired level of confluency of 80% in a T75 flask, the medium was aspirated, and the cells were washed with warm phosphate buffered saline or PBS two times. • 4. 2-3 ml fresh warm trypsin (Gibco, Cat No. 25200-056) solution was added to the washed cells. The flask with the cells was transferred to a 37° C. incubator. • 5. After 5 minutes, the side of the flask was tapped, and the flask was examined under a microscope for detachment of the cells to the flask. If necessary, the cells were kept in the incubator for an additional 5-10 minutes, with occasional tapping, until lifting was complete. • 6. The trypsin reaction was neutralized by transferring 6-9 ml cell culture medium to sterile 15 ml conical tubes, and by centrifuging the cell culture at 300×g for 7 minutes to pellet the cells (supernatant decanted). • 7. The cells were resuspended in fresh cell culture medium and the cell counting was performed using a hemocytometer. • 8. 100 μl of the resuspended cell culture medium containing ˜5,000 cells were transferred into each well of the sterile 96-well cell culture plate (Corning 3903) and cultured overnight at 37° C. with 5% CO2.
• 1. All test compounds were dissolved in DMSO (Dimethyl sulfoxide) to create a 20 mM stock. • 2. 3 μl of 20 mM stock of each compound was mixed with 27 μl DMSO, and the compound solution was further diluted at a titration ratio of 1:3 (20 μl compound solution+40 μl DMSO) till the 10 points end. • 3. All culture medium was removed from assay plates filled with HT-29 cell cultures. The cells were then washed with 1 PBS, and resuspsended in fresh, FBS-free McCOY's 5A medium containing a cocktail of TNF-α (10 ng/ml), a SMAC mimetic compound (6 μM) and Z-VAD-fluoromethylketone or zVAD-FMK (10 μM) to stimulate the HT-29 cells to increase RIP1 kinase levels and necroptosis. • 4. 0.5 μL of the diluted compound solution was added to the corresponding 96-well assay plates. • 5. The assay plates were incubated for 20 hours at 37° C. with 5% CO2.
• 1. The CellTiter-Glo® Luminescent Cell Viability Assay was employed to detect the ATP levels of viable HT-29 cells. • 2. The CellTiter-Glo® buffer and the lyophilized substrate were equilibrated to room temperature prior to use. • 3. The CellTiter-Glo® substrate was resuspended with CellTiter-Glo® buffer, then mixed by gently vortexing to obtain a homogeneous solution. • 4. 20 μl of the enzyme/substrate mixture was transferred by multi-channel pipetting into 96-well assay plates. • 5. The assay plates were placed on an orbital shaker and the contents were shaken for 3 minutes to induce cell lysis. • 6. The assay plates were incubated at room temperature for 10 minutes to stabilize the luminescent signal. • 7. The luminescence signals were read and recorded with EnVision. • 8. The geometric mean IC50 values were calculated from 10 points response dose with duplicates. […]

Take `Cc1cccnc1Cn1cnn(-c2ccc(Oc3sc(C(N)=O)nc3C)c(F)c2)c1=O` [Example 26, 5-(2-fluoro-4-(4-((3-methylpyridin-2-yl)methyl)-5-oxo-4,5-dihydro-1H-1,2,4-triazol-1-yl)phenoxy)-4-methylthiazole-2-carboxamide]: the IC50 was 0.1 to 1 µM.

Turning to `Cc1nc(C(=O)NCCN)sc1Oc1ccc(-n2ncn(Cc3ccccc3F)c2=O)cc1F` [Example 27, N-(2-aminoethyl)-5-(2-fluoro-4-(4-(2-fluorobenzyl)-5-oxo-4,5-dihydro-1H-1,2,4-triazol-1-yl)phenoxy)-4-methylthiazole-2-carboxamide], the IC50 was less than 0.1 µM.

For `Cn1nc(C(N)=O)cc1Oc1ccc(-n2nc3n(c2=O)C(c2ccccc2)CC3)cc1F` (stereo not drawn) [Example 29, 5-(2-fluoro-4-(3-oxo-5-phenyl-6,7-dihydro-3H-pyrrolo[2,1-c][1,2,4]triazol-2(5H)-yl)phenoxy)-1-methyl-1H-pyrazole-3-carboxamide], the IC50 is less than 0.1 µM.

On to `Cc1nc(C(N)=O)sc1Oc1ccc(-n2ncn(Cc3cnccc3Cl)c2=O)cc1F` [Example 31, 5-(4-(4-((4-chloropyridin-3-yl)methyl)-5-oxo-4,5-dihydro-1H-1,2,4-triazol-1-yl)-2-fluorophenoxy)-4-methylthiazole-2-carboxamide], for which the IC50 is less than 0.1 µM.

Regarding `COC(=O)c1nc(C)c(Oc2ccc(-n3ncn(Cc4ncccc4F)c3=O)cc2F)s1` [Example 32], the IC50 fell in the range of 0.1 to 1 µM.

As to `COC(=O)c1nc(C)c(Oc2ccc(-n3ncn(Cc4ncccc4C#N)c3=O)cc2F)s1` [Example 33, methyl 5-(4-(4-((3-cyanopyridin-2-yl)methyl)-5-oxo-4,5-dihydro-1H-1,2,4-triazol-1-yl)-2-fluorophenoxy)-4-methylthiazole-2-carboxylate], the IC50 fell in the range of 0.1 to 1 µM.

For `COC(=O)c1nc(C)c(Oc2ccc(-n3nc4n(c3=O)C(c3ccccc3)CC4)cc2F)s1` (stereo not drawn) [Example 34, methyl 5-(2-fluoro-4-(3-oxo-5-phenyl-6,7-dihydro-3H-pyrrolo[2,1-c][1,2,4]triazol-2(5H)-yl)phenoxy)-4-methylthiazole-2-carboxylate], the IC50 was in the range of 0.1 to 1 µM.

With `Cc1nc(C#N)sc1Oc1ccc(-n2ncn(Cc3ncccc3Cl)c2=O)cc1F` [Example 37, 5-(4-(4-((3-chloropyridin-2-yl)methyl)-5-oxo-4,5-dihydro-1H-1,2,4-triazol-1-yl)-2-fluorophenoxy)-4-methylthiazole-2-carbonitrile], the IC50 was less than 0.1 µM.

Take `Cc1nc(C#N)sc1Oc1ccc(-n2ncn(Cc3cnccc3Cl)c2=O)cc1F` [Example 38, 5-(4-(4-((4-chloropyridin-3-yl)methyl)-5-oxo-4,5-dihydro-1H-1,2,4-triazol-1-yl)-2-fluorophenoxy)-4-methylthiazole-2-carbonitrile]: the IC50 is less than 0.1 µM.

In the case of `Cc1nc(C2CC(C#N)C2)sc1Oc1ccc(-n2ncn(Cc3c(F)cccc3F)c2=O)cc1` (stereo not drawn) [Example 39, 3-(5-(4-(4-(2,6-difluorobenzyl)-5-oxo-4,5-dihydro-1H-1,2,4-triazol-1-yl)phenoxy)-4-methylthiazol-2-yl)cyclobutane-1-carbonitrile], the IC50 was less than 0.1 µM.

With `Cc1nc(C2CC(C#N)C2)sc1Oc1ccc(-n2ncn(Cc3c(F)cccc3F)c2=O)cc1F` (stereo not drawn) [Example 40, 3-(5-(4-(4-(2,6-difluorobenzyl)-5-oxo-4,5-dihydro-1H-1,2,4-triazol-1-yl)-2-fluorophenoxy)-4-methylthiazol-2-yl)cyclobutane-1-carbonitrile], the IC50 is less than 0.1 µM.

On to `Cc1nc(C2CN(C(=O)OC(C)(C)C)C2)sc1Oc1ccc(-n2ncn(Cc3c(F)cccc3F)c2=O)cc1F` [Example 41, tert-butyl 3-(5-(4-(4-(2,6-difluorobenzyl)-5-oxo-4,5-dihydro-1H-1,2,4-triazol-1-yl)-2-fluorophenoxy)-4-methylthiazol-2-yl)azetidine-1-carboxylate], for which the IC50 was less than 0.1 µM.

In the case of `Cc1nc(C2COC2)sc1Oc1ccc(-n2ncn(Cc3c(F)cccc3F)c2=O)cc1` [Example 42, 4-(2,6-difluorobenzyl)-2-(4-((4-methyl-2-(oxetan-3-yl)thiazol-5-yl)oxy)phenyl)-2,4-dihydro-3H-1,2,4-triazol-3-one], the IC50 was less than 0.1 µM.

With `Cc1nc(N2C[C@@H](C#N)[C@@H]2C)sc1Oc1ccc(-n2ncn(Cc3c(F)cccc3F)c2=O)cc1` [Example 43, (2S,3R)-1-(5-(4-(4-(2,6-difluorobenzyl)-5-oxo-4,5-dihydro-1H-1,2,4-triazol-1-yl)phenoxy)-4-methylthiazol-2-yl)-2-methylazetidine-3-carbonitrile], the IC50 is less than 0.1 µM.

`Cc1nc(N2C[C@H](C#N)[C@@H]2C)sc1Oc1ccc(-n2ncn(Cc3c(F)cccc3F)c2=O)cc1` [Example 44, (2S,3S)-1-(5-(4-(4-(2,6-difluorobenzyl)-5-oxo-4,5-dihydro-1H-1,2,4-triazol-1-yl)phenoxy)-4-methylthiazol-2-yl)-2-methylazetidine-3-carbonitrile]: the IC50 was less than 0.1 µM.

Regarding `Cc1nc(NC23CC(C#N)(C2)C3)sc1Oc1ccc(-n2ncn(Cc3c(F)cccc3F)c2=O)cc1` [Example 45, 3-((5-(4-(4-(2,6-difluorobenzyl)-5-oxo-4,5-dihydro-1H-1,2,4-triazol-1-yl)phenoxy)-4-methylthiazol-2-yl)amino)bicyclo[1.1.1]pentane-1-carbonitrile], the IC50 was less than 0.1 µM.

As for `Cc1nc(N2CC(C)(C#N)C2)sc1Oc1ccc(-n2ncn(Cc3c(F)cccc3F)c2=O)cc1` [Example 46, 1-(5-(4-(4-(2,6-difluorobenzyl)-5-oxo-4,5-dihydro-1H-1,2,4-triazol-1-yl)phenoxy)-4-methylthiazol-2-yl)-3-methylazetidine-3-carbonitrile], the IC50 was less than 0.1 µM.

On to `Cc1nc(N2CC(OC3CC3)C2)sc1Oc1ccc(-n2ncn(Cc3c(F)cccc3F)c2=O)cc1` [Example 47, 2-(4-((2-(3-cyclopropoxyazetidin-1-yl)-4-methylthiazol-5-yl)oxy)phenyl)-4-(2,6-difluorobenzyl)-2,4-dihydro-3H-1,2,4-triazol-3-one], for which the IC50 was less than 0.1 µM.

`Cc1nc(N2CC(C#N)C2C)sc1Oc1ccc(-n2ncn(Cc3c(F)cccc3F)c2=O)cc1` (stereo not drawn) [Example 48, 1-(5-(4-(4-(2,6-difluorobenzyl)-5-oxo-4,5-dihydro-1H-1,2,4-triazol-1-yl)phenoxy)-4-methylthiazol-2-yl)-2-methylazetidine-3-carbonitrile]: the IC50 was less than 0.1 µM.

Turning to `Cc1nc(N2CC(OC(F)F)C2)sc1Oc1ccc(-n2ncn(Cc3c(F)cccc3F)c2=O)cc1` [Example 49, 4-(2,6-difluorobenzyl)-2-(4-((2-(3-(difluoromethoxy)azetidin-1-yl)-4-methylthiazol-5-yl)oxy)phenyl)-2,4-dihydro-3H-1,2,4-triazol-3-one], the IC50 was less than 0.1 µM.

Take `Cc1nc(N2C[C@@H](O)[C@@H]2C)sc1Oc1ccc(-n2ncn(Cc3c(F)cccc3F)c2=O)cc1` [Example 50, 4-(2,6-difluorobenzyl)-2-(4-((2-((2S,3R)-3-hydroxy-2-methylazetidin-1-yl)-4-methylthiazol-5-yl)oxy)phenyl)-2,4-dihydro-3H-1,2,4-triazol-3-one]: the IC50 was less than 0.1 µM.
